From patent US9726659B2, “CMPF as a biomarker for diabetes and associated methods” (The Governing Council of the University of Toronto, priority 2012, dated 2017)

Key:
MIN6 cells = experiment: Annexin V and propidium iodide staining for apoptosis and necrosis; assay type: cell-based, murine; conditions: 5 mM, 3 hrs
Procedure: A) MIN6 cells were treated for 4 hrs with 0 uM (EtOH vehicle control), 20 uM or 200 uM CMPF prior to being loaded with Annexin V and propidium iodide fluorescent dyes, and counterstained with Hoechst dye. […] B) Primary CD1 islets were dispersed and treated with vehicle control (0 CMPF, black), 20 uM CMPF (grey), or 200 uM CMPF (white) for 48 hours, then stained with Annexin V, Propidium Iodide and Hoechst dye. Quantification of double positive staining was assessed by an Arrayscan VTI HCS reader.
Next the mechanism underlying the observed impairment in GSIS following treatment with CMPF was investigated. To determine whether CMPF was inhibiting GSIS by inducing beta cell apoptosis, Annexin V and Propidium Iodide staining was performed in MIN6 cells treated with vehicle (EtOH), 20 uM or 200 uM CMPF for 4 hrs to look for apoptosis and necrosis respectively. […] MIN6 cells treated with 5 mM H2O2 for 3 hrs were used as a positive control (FIG. 4).

[1] = tested on: dispersed CD1 mouse islet cells; experiment: Immunofluorescent staining of FOXO1 and PDX1 localization; assay type: cell-based; conditions: treatment with NAC
Procedure: The cellular localization of FOXO1 and PDX1 were determined in dispersed CD1 mouse islet cells using immunofluorescence. The presence of the organic anion transporters (OATs) were determined in dispersed human islet cells also using immunofluorescence. Staining was performed as previously described (Diao et al., 2008). Images were acquired using a confocal microscope (Quorum Wave FX Spinning Disc; Perkin Elmer, Waltham M L, USA) and Volocity software (Perkin Elmer).
To determine the mechanism through which CMPF decreases insulin biosynthesis we examined its effect on these key regulators. Under normal conditions, AKT and GSK3β have reciprocal activities. Active pAKT phosphorylates and inactivates GSK3β, preventing phosphorylation of downstream targets (Humphrey et al., 2010). […] FOXO1 is normally sequestered in the cytosol due to phosphorylation by AKT (Kitamura et al., 2005). […] Altered activity of these transcription factors is further confirmed by decreased mRNA levels of key target genes including Inst, transcription factors Pdx1 and Mafa, proinsulin processing enzymes CpE, Pc1 and Pc2, and the glucose transporter Glut2 (Boucher et al., 2006; Kaneto et al. 2008) (FIG. 18a).

primary murine islets = experiment: Glucose- and KCl-stimulated insulin secretion in primary murine islets; assay type: cell-based; conditions: co-treatment with 500 μM NAC, 24 hr
Procedure: LG=2.8 mM glucose, HG=16.7 mM glucose, KCl=16.7 mM glucose+30 mM KCl. *p<0.05.
Since beta cell failure is a major underlying cause of both GDM and T2D, the effect of increased CMPF on beta cell function was investigated both in vitro and in vivo. Using physiological concentrations of CMPF (20 uM and 200 uM, as observed in our NGT-pregnant and GDM-pregnant samples respectively (FIG. 2)), as well as a vehicle control (EtOH), its effect was studied on glucose-stimulated insulin secretion (GSIS) and insulin secretion in response to direct depolarization using the secretagogue KCl in an immortalized murine beta cell line (MIN6), as well as primary isolated human and murine islets (FIG. 3A). […] Therefore, high physiologically relevant levels of CMPF impair GSIS.

mouse islets = experiment: ROS accumulation in isolated islets (mitoSOX red, CM-H2-DCFDA); assay type: cell-based; conditions: co-treatment with 500 μM NAC, 24 hr
Procedure: A) Proinsulin in the media of 24 hr treated islets (n=4/group). B) Mitochondrial membrane potential (MMP) following acute addition of vehicle control or 200 μM of CMPF (N=3/group). C) ROS levels in 4- and 24-hour treated mouse islets with representative images (N=10-15 islets/mouse from 4 mice/group). D) Expression of antioxidant genes Cat and (e) Ucp2 (n=4/group). F) ROS accumulation in 24 hr-treated islets treated with 500 μM NAC (n=10 islets/mouse from 4 mice/group). G) GSIS and (h) total insulin content from 24 hr-treated islets co-treated with 500 μM NAC (n=4/group). Western blots showing (i) Ser9 phosphorylation of GSK3β, (j) Ser473 phosphorylation of AKT (n=3/group). K) Immunofluorescent staining showing nuclear translocation of FOXO1 and (l) PDX1 with CMPF and NAC treatment (n=3-6). Quantification of nuclear percentage of (m) FOXO1 and (n) PDX1 based on immunofluorescent staining with CMPF and NAC treatment. O) Western blots showing protein abundance of PDX1 and FOXO1. Values are mean+/−SEM. Student's t-test (a, c-j, m-o), one-way ANOVA (b). *P<0.05, **P<0.01, ***P<0.001.
The level of superoxide and H2O2 were determined using mitoSOX red and 2′,7′-dichlorodihydro fluorescein diacetate (CM-H2-DCFDA) respectively (Molecular Probes, Invitrogen, Canada) in isolated islets treated with either vehicle control or 200 μM CMPF for 4 or 24 hours, as previously described (Lee et al. 2009). […]

murine islets = experiment: Total insulin content in murine islets; assay type: cell-based; conditions: co-treatment with 500 μM NAC, 24 hr
Procedure: Murine islets were treated for 24 hrs with vehicle control (0 CMPF), 20 uM (20 CMPF), or 200 uM (200 CMPF) CMPF, and assessed for total insulin content and mRNA expression. […] Decreased expression of insulin processing enzymes PCSK1, 2 and CpE (F), (G), (H) indicate that CMPF may also impair post-translational insulin processing. Finally, CMPF causes decreased expression of the beta cell glucose transporter GLUT2, and GCK, the rate-limiting enzyme critical for glucose metabolism (I) and (J), perhaps impairing glucose sensing and metabolism. In all cases n=4, *P<0.05.
In the absence of apoptosis and necrosis, CMPF must be impairing GSIS by causing beta cell dysfunction. First, the effect of CMPF treatment on insulin biosynthesis was investigated to determine if insulin is available to be released upon stimulation. MIN6, murine and human islets were treated with vehicle control, 20 uM and 200 uM CMPF for 4 hrs (MIN6) or 24 hrs (islets), and total insulin content measured. […] Lower total insulin content may be due to either defective insulin processing from proinsulin to mature insulin, or insufficient insulin transcription. To determine the mechanism through which CMPF is reducing total insulin content, quantitative PCR (qPCR) was performed on RNA that was isolated from murine islets treated with either vehicle control or 200 uM CMPF for 24 hrs.

CD1 mouse islets = experiment: GSIS and insulin content of CMPF-treated islets with OAT inhibitors; assay type: cell-based
From the text: A) Microarray analysis of human islets showing expression of OAT transporters and beta-cell genes (n=3). Validation of OAT expression in human islets by (b) RT-PCR, (c) western blot, and (d) immunofluorescent staining with insulin (n=3-5). Human kidney samples are from the HK2 human proximal tubule cell line. GSIS from murine islets co-treated with OAT inhibitors (e) Probenecid, (f) benzylpenicillin (PCG) and (g) p-aminohippurate (PAH) (n=4/group). h) Total insulin content from murine islets co-treated with CMPF and PCG (n=4). Values mean+/−SEM. Student's t-test (a, e-h). *P<0.05, **P<0.01, ***P<0.001.
To determine if the OAT transporters are responsible for CMPF transport into beta cells, CD1 mouse islets were pre-treated 1 mM Probenecid prior to the addition of CMPF to ensure blockage of the channels and complete exclusion of CMPF from the cells. A dosage of 1 mM Probenecid was selected based on previous evidence that this concentration was sufficient to inhibit anion transport from beta cells without any observed effect on glucose-stimulated insulin secretion (Arkhammar et al. 1989). Islets were pre-treated with 1 mM Probenecid for 3 hours prior to the addition of 200 uM CMPF. After 24 hours cells were assessed by GSIS. Treatment with 200 uM CMPF alone produced a significant decrease in GSIS under both high glucose and KCl-stimulated conditions, consistent with previous findings, while treatment with 1 mM Probenecid for 27 hours had no effect on GSIS compared to vehicle controls. […] Therefore, probenecid inhibits the effect of CMPF. Similar results were obtained using the OAT3-specific inhibitor PCG. Islets were again pre-treated for 3 hours with 300 uM PCG prior to 24-hour 200 uM CMPF treatment (FIG. 14B).
To determine if OATs are responsible for CMPF transport into beta-cells, we utilized inhibitors of OAT function. Probenecid is a non-specific OAT-blocker (Miyamoto et al., 2012). Treatment of islets with 1 mM probenecid for 24 hrs rescued insulin secretion from CMPF-treated islets to control levels (FIG. 19e). To determine which OAT is primarily responsible for CMPF transport into beta-cells, we treated islets with 300 μM of benzylpenicillin (PCG), an OAT3-specific inhibitor, or 50 μM of paminohippurate (PAH), an OAT1-specific inhibitor (Deguchi et al., 2005). Consistent with previous reports that OAT3 is the dominant CMPF transporter (Deguchi et al., 2005), PCG was able to rescue insulin secretion and insulin content from CMPF-treated islets to control levels (FIG. 19f,h). However, treatment with PAH had no effect on secretion (FIG. 19g). Therefore, CMPF is transported into the beta-cell through OAT3, and blockage of this transporter prevents CMPF from impairing GSIS and insulin biosynthesis.

OAT3 = target: T1, OAT3 (Rattus norvegicus, UniProt Q9R1U7); conditions: concentrations of PCG that selectively inhibit OAT3; cited from earlier work
T1 construct: host or cells: kidney (in vivo, per the cited study)
T1 sequence (Q9R1U7 1-536): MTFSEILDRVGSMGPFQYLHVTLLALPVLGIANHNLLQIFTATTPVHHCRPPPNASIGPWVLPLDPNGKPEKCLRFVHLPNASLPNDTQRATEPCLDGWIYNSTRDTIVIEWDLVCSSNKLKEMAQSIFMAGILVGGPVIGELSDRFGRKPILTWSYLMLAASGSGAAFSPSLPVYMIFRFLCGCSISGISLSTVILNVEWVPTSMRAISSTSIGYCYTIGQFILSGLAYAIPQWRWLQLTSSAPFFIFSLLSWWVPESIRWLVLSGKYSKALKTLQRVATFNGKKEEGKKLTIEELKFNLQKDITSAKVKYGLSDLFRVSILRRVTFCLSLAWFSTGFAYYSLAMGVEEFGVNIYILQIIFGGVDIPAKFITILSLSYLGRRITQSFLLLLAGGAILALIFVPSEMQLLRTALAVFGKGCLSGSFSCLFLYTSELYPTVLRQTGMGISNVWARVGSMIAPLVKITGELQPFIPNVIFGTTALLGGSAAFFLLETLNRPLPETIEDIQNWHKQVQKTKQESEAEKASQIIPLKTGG

OAT transporter = conditions: 5 mg/kg CMPF co-administered with 150 mg/kg probenecid; cited from earlier work
mice = experiment: Probenecid IP twice daily for 3 days in mice; assay type: in vivo
Procedure: Mice were injected IP with 150 mg/kg probenecid twice daily for 3 days as previously described (Baudoux et al., 2012).

[2] = 150 mg/kg IP twice daily for 3 days

Compound: OO [H2O2, reference compound]
- Annexin V and propidium iodide staining (positive control) (MIN6 cells): only observed in the positive control

Compound: CC(=O)N[C@@H](CS)C(=O)O [NAC, N-Acetyl-Cysteine, reference compound]
- CMPF-induced translocation of FOXO1 [1]: prevented
- CMPF-induced translocation of PDX1 [1]: prevented
- insulin secretion (GSIS) in CMPF-treated islets (primary murine islets): rescued
- CMPF-induced increase in ROS production (mouse islets): inhibited
- insulin content in CMPF-treated islets (murine islets): rescued

Compound: Nc1ccc(C(=O)NCC(=O)O)cc1 [PAH, p-aminohippurate]
- insulin secretion of CMPF-treated islets (CD1 mouse islets; 50 μM): no effect

Compound: CC1(C)S[C@@H]2[C@H](NC(=O)Cc3ccccc3)C(=O)N2[C@H]1C(=O)O [PCG, benzylpenicillin]
- insulin secretion, inhibitor alone (CD1 mouse islets; 300 uM): no significant effect
- effect of 200 uM CMPF on insulin secretion under high glucose (CD1 mouse islets; 300 uM, 3 hour pre-treatment, then 24 hours with CMPF): inhibited the effect of CMPF
- insulin content of CMPF-treated islets (CD1 mouse islets; 300 μM, to control levels): rescue
- CMPF secretion prevented (OAT3): 65-75%

Compound: CCCN(CCC)S(=O)(=O)c1ccc(C(=O)O)cc1 [probenecid]
- plasma clearance of CMPF (OAT transporter): significantly reduced
- effect of 200 uM CMPF on high-glucose and KCl-stimulated insulin secretion (CD1 mouse islets; 1 mM, 3 hour pre-treatment, then 24 hours with CMPF): completely abolished the effect of CMPF
- GSIS, inhibitor alone vs vehicle (CD1 mouse islets; 1 mM, 27 hours): no effect
- body weight (mice; [2]): No differences
- fasting blood glucose (mice; [2]): No differences
- plasma uric acid concentrations (mice; 150 mg/kg twice daily): significantly reduced
- glucose tolerance (2 g/kg OGTT) (mice; on the 4th day): no significant difference
